Measurements: paper PMC11676667, “Pharmacokinetics of Oral Cannabinoid Δ8-Tetrahydrocannabivarin and Its Main Metabolites in Healthy Participants” (Pharmaceuticals, 2024)
Where two headings read alike, the source gives them in different places.

Assay: Plasma pharmacokinetics after single oral dose of Δ8-THCV in MCT oil (LC-MS/MS, non-compartmental analysis)
Type: in vivo, human
Design: Clast (last quantifiable concentration): unit not given here
Settings: for Clast (last quantifiable concentration) / tlast (time to last quantifiable concentration) / concentration at 0.5 h / concentration at 1 h / concentration at 2 h / concentration at 4 h / concentration at 6 h / concentration at 8 h / Tmax / AUC(0-t) / Cmax / MRT: plasma; for plasma concentration: Predose; for concentration at 0.5 h / concentration at 1 h / concentration at 2 h / concentration at 4 h / concentration at 6 h / concentration at 8 h / Tmax / AUC(0-t) / Cmax / MRT: human; for Tmax: read-out: tmax; for MRT: read-out: MRT (mean residence time)
How it was run: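 Healthy participants received single oral Δ8-THCV in MCT oil (50 mg/mL; 12.5-200 mg, or placebo) after a high-fat, high-calorie breakfast, with ≥1-week washout. Plasma (K2EDTA) sampled predose and 0.5-8 h post-dose, assayed by validated LC-MS/MS including metabolites; PK by non-compartmental analysis, sub-LLOQ values set to 0.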

[1] = 12.5 mg single oral Δ8-THCV in MCT oil, Mean (±SD)
[2] = 12.5 mg single oral Δ8-THCV in MCT oil, Median (Range)
[3] = 25 mg single oral Δ8-THCV in MCT oil, Mean (±SD)
[4] = 25 mg single oral Δ8-THCV in MCT oil, Median (Range)
[5] = 50 mg single oral Δ8-THCV in MCT oil, Mean (±SD)
[6] = 50 mg single oral Δ8-THCV in MCT oil, Median (Range)
[7] = 100 mg single oral Δ8-THCV in MCT oil, Mean (±SD)
[8] = 100 mg single oral Δ8-THCV in MCT oil, Median (Range)
[9] = 200 mg single oral Δ8-THCV in MCT oil, Mean (±SD)
[10] = 200 mg single oral Δ8-THCV in MCT oil, Median (Range)
[11] = oral, 12.5 mg, 12.5 mg Δ8-THCV dose, Mean (SD, %CV)
[12] = oral, 12.5 mg, 12.5 mg Δ8-THCV dose, Median (IQ Range)
[13] = oral, 25 mg, 25 mg Δ8-THCV dose, Mean (SD, %CV)
[14] = oral, 25 mg, 25 mg Δ8-THCV dose, Median (IQ Range)
[15] = oral, 50 mg, 50 mg Δ8-THCV dose, Mean (SD, %CV)
[16] = oral, 50 mg, 50 mg Δ8-THCV dose, Median (IQ Range)
[17] = oral, 100 mg, 100 mg Δ8-THCV dose, Mean (SD, %CV)
[18] = oral, 100 mg, 100 mg Δ8-THCV dose, Median (IQ Range)
[19] = oral, 200 mg, 200 mg Δ8-THCV dose, Mean (SD, %CV)
[20] = oral, 200 mg, 200 mg Δ8-THCV dose, Median (IQ Range)
[21] = po, 12.5 mg, 12.5 mg single oral Δ8-THCV in MCT oil, Mean (±SD)
[22] = po, 12.5 mg, 12.5 mg single oral Δ8-THCV in MCT oil, Median (Range)
[23] = po, 25 mg, 25 mg single oral Δ8-THCV in MCT oil, Mean (±SD)
[24] = po, 25 mg, 25 mg single oral Δ8-THCV in MCT oil, Median (Range)
[25] = po, 50 mg, 50 mg single oral Δ8-THCV in MCT oil, Mean (±SD)
[26] = po, 50 mg, 50 mg single oral Δ8-THCV in MCT oil, Median (Range)
[27] = po, 100 mg, 100 mg single oral Δ8-THCV in MCT oil, Mean (±SD)
[28] = po, 100 mg, 100 mg single oral Δ8-THCV in MCT oil, Median (Range)
[29] = po, 200 mg, 200 mg single oral Δ8-THCV in MCT oil, Mean (±SD)
[30] = po, 200 mg, 200 mg single oral Δ8-THCV in MCT oil, Median (Range)

CCCc1cc(O)c2c(c1)OC(C)(C)[C@@H]1CCC(C(=O)O)=C[C@@H]21 [Δ9-THCV-COOH, 11-nor-9-carboxy-Δ9-THCV]
Clast (last quantifiable concentration) [1]: 1.9 (±0.8) | tlast (time to last quantifiable concentration) [1]: 6.8 (±1.7) | Clast (last quantifiable concentration) [2]: 1.7 (1.1–3.3) | tlast (time to last quantifiable concentration) [2]: 8 (4–8) | Clast (last quantifiable concentration) [3]: 2.6 (±1) | tlast (time to last quantifiable concentration) [3]: 7.6 (±1.2) | Clast (last quantifiable concentration) [4]: 2.4 (1.3–4.4) | tlast (time to last quantifiable concentration) [4]: 8 (4–8) | Clast (last quantifiable concentration) [5]: 5.4 (±1.9) | tlast (time to last quantifiable concentration) [5]: 8 (±0) | Clast (last quantifiable concentration) [6]: 5.2 (2.4–8.5) | tlast (time to last quantifiable concentration) [6]: 8 (8–8) | Clast (last quantifiable concentration) [7]: 10.8 (±3.7) | tlast (time to last quantifiable concentration) [7]: 8 (±0) | Clast (last quantifiable concentration) [8]: 10.5 (6.2–16.1) | tlast (time to last quantifiable concentration) [8]: 8 (8–8) | Clast (last quantifiable concentration) [9]: 29.2 (±16.1) | tlast (time to last quantifiable concentration) [9]: 8 (±0) | Clast (last quantifiable concentration) [10]: 26.3 (10.9–63.8) | tlast (time to last quantifiable concentration) [10]: 8 (8–8) | plasma concentration (12.5 mg Δ8-THCV dose, Mean (SD, %CV)): 0 (±0, --) ng/mL | plasma concentration (12.5 mg Δ8-THCV dose, Median (IQ Range)): 0 (0–0) ng/mL | plasma concentration (25 mg Δ8-THCV dose, Mean (SD, %CV)): 0 (±0, --) ng/mL | plasma concentration (25 mg Δ8-THCV dose, Median (IQ Range)): 0 (0–0) ng/mL | plasma concentration (50 mg Δ8-THCV dose, Mean (SD, %CV)): 0 (±0, --) ng/mL | plasma concentration (50 mg Δ8-THCV dose, Median (IQ Range)): 0 (0–0) ng/mL | plasma concentration (100 mg Δ8-THCV dose, Mean (SD, %CV)): 0 (±0, --) ng/mL | plasma concentration (100 mg Δ8-THCV dose, Median (IQ Range)): 0 (0–0) ng/mL | plasma concentration (200 mg Δ8-THCV dose, Mean (SD, %CV)): 0 (±0, --) ng/mL | plasma concentration (200 mg Δ8-THCV dose, Median (IQ Range)): 0 (0–0) ng/mL | concentration at 0.5 h [11]: 0 ng/mL | concentration at 0.5 h [12]: 0 ng/mL | concentration at 1 h [11]: 0.1 ng/mL | concentration at 1 h [12]: 0 ng/mL | concentration at 2 h [11]: 0.5 ng/mL | concentration at 2 h [12]: 0 ng/mL | concentration at 4 h [11]: 1.9 ng/mL | concentration at 4 h [12]: 1.8 ng/mL | concentration at 6 h [11]: 1.5 ng/mL | concentration at 6 h [12]: 1.3 ng/mL | concentration at 8 h [11]: 1.2 ng/mL | concentration at 8 h [12]: 1.4 ng/mL | concentration at 0.5 h [13]: 0 ng/mL | concentration at 0.5 h [14]: 0 ng/mL | concentration at 1 h [13]: 0.7 ng/mL | concentration at 1 h [14]: 0 ng/mL | concentration at 2 h [13]: 1.6 ng/mL | concentration at 2 h [14]: 1.7 ng/mL | concentration at 4 h [13]: 3.7 ng/mL | concentration at 4 h [14]: 3.6 ng/mL | concentration at 6 h [13]: 3 ng/mL | concentration at 6 h [14]: 2.4 ng/mL | concentration at 8 h [13]: 2.3 ng/mL | concentration at 8 h [14]: 2.3 ng/mL | concentration at 0.5 h [15]: 0 ng/mL | concentration at 0.5 h [16]: 0 ng/mL | concentration at 1 h [15]: 0.6 ng/mL | concentration at 1 h [16]: 0 ng/mL | concentration at 2 h [15]: 2.3 ng/mL | concentration at 2 h [16]: 0 ng/mL | concentration at 4 h [15]: 5.4 ng/mL | concentration at 4 h [16]: 5 ng/mL | concentration at 6 h [15]: 6.7 ng/mL | concentration at 6 h [16]: 5.9 ng/mL | concentration at 8 h [15]: 5.4 ng/mL | concentration at 8 h [16]: 5.2 ng/mL | concentration at 0.5 h [17]: 0.3 ng/mL | concentration at 0.5 h [18]: 0 ng/mL | concentration at 1 h [17]: 5.8 ng/mL | concentration at 1 h [18]: 1.9 ng/mL | concentration at 2 h [17]: 9.2 ng/mL | concentration at 2 h [18]: 8.7 ng/mL | concentration at 4 h [17]: 16.1 ng/mL | concentration at 4 h [18]: 16 ng/mL | concentration at 6 h [17]: 15.6 ng/mL | concentration at 6 h [18]: 17.5 ng/mL | concentration at 8 h [17]: 10.8 ng/mL | concentration at 8 h [18]: 10.5 ng/mL | concentration at 0.5 h [19]: 0.1 ng/mL | concentration at 0.5 h [20]: 0 ng/mL | concentration at 1 h [19]: 4.9 ng/mL | concentration at 1 h [20]: 2.7 ng/mL | concentration at 2 h [19]: 19.1 ng/mL | concentration at 2 h [20]: 9.4 ng/mL | concentration at 4 h [19]: 37.1 ng/mL | concentration at 4 h [20]: 40 ng/mL | concentration at 6 h [19]: 32.3 ng/mL | concentration at 6 h [20]: 28.5 ng/mL | concentration at 8 h [19]: 29.2 ng/mL | concentration at 8 h [20]: 26.3 ng/mL | Tmax (oral, present study, MCT oil formulation, as compared in discussion): 5 h | AUC(0-t) [21]: 7.9 ng·h/mL | Cmax [21]: 2.7 ng/mL | AUC(0-t) [22]: 5.6 ng·h/mL | Cmax [22]: 2.8 ng/mL | MRT [21]: 5.1 h | Tmax [21]: 5.1 h | MRT [22]: 5.3 h | Tmax [22]: 4 h | AUC(0-t) [23]: 18.3 ng·h/mL | Cmax [23]: 4.2 ng/mL | AUC(0-t) [24]: 19.6 ng·h/mL | Cmax [24]: 4.4 ng/mL | MRT [23]: 4.8 h | Tmax [23]: 4.6 h | MRT [24]: 4.6 h | Tmax [24]: 4 h | AUC(0-t) [25]: 33.4 ng·h/mL | Cmax [25]: 8.8 ng/mL | AUC(0-t) [26]: 30.8 ng·h/mL | Cmax [26]: 7.7 ng/mL | MRT [25]: 5.5 h | Tmax [25]: 5.1 h | MRT [26]: 5.5 h | Tmax [26]: 6 h | AUC(0-t) [27]: 92.5 ng·h/mL | Cmax [27]: 22.5 ng/mL | AUC(0-t) [28]: 86.5 ng·h/mL | Cmax [28]: 20.6 ng/mL | MRT [27]: 4.9 h | Tmax [27]: 4.5 h | MRT [28]: 4.6 h | Tmax [28]: 4 h | AUC(0-t) [29]: 201 ng·h/mL | Cmax [29]: 50.3 ng/mL | AUC(0-t) [30]: 190 ng·h/mL | Cmax [30]: 48.2 ng/mL | MRT [29]: 5.1 h | Tmax [29]: 5.3 h | MRT [30]: 5.2 h | Tmax [30]: 6 h | number of positive plasma samples (of 504 plasma samples from 15 participants after oral Δ8-THCV): 260 | concentration in representative plasma sample (one subject after oral Δ8-THCV in MCT oil, Figure A1): 33.2 ng/mL
